Reference: ChEMBL document CHEMBL1156953, “Novel pyrrolyl 2-aminopyridines as potent and selective human beta-secretase (BACE1) inhibitors” (Bioorg Med Chem Lett, 2010)

Assay: Dissociation constant, pKa of the compound
Format: physicochemical

pKa | Compound
6.86 | CCCOc1ccc(-c2ccc(-c3ccccc3Cl)n2Cc2cccc(N)n2)cc1
6.86 | CCNC(=O)c1ccc(-c2ccc(-c3ccccc3)n2Cc2cccc(N)n2)cc1
6.86 | CCCNC(=O)c1ccc(-c2ccc(-c3ccccc3)n2Cc2cccc(N)n2)cc1
6.86 | Nc1cccc(Cn2c(-c3ccc(Oc4ccccc4)cc3)ccc2-c2ccccc2Cl)n1
6.86 | Nc1cccc(Cn2c(-c3ccccc3)ccc2-c2ccccc2)n1
6.86 | Nc1cccc(Cn2c(-c3ccc(Oc4cccnn4)cc3)ccc2-c2ccccc2Cl)n1
6.86 | Nc1cccc(Cn2c(-c3ccccc3)ccc2-c2ccc(C(=O)NC3CC3)cc2)n1
6.86 | CCCCCOc1ccc(-c2ccc(-c3ccccc3Cl)n2Cc2cccc(N)n2)cc1
6.86 | CCCCCOc1ccc(-c2ccc(-c3ccccc3Cl)n2Cc2ccc(OCCO)c(N)n2)cc1
6.86 | CCCCCOc1ccc(-c2ccc(-c3ccccc3Cl)n2Cc2ccc(OCCCO)c(N)n2)cc1

More lines, now with the values behind:

Compound | pKa
N#CCCCOc1ccc(-c2ccc(-c3ccccc3Cl)n2Cc2cccc(N)n2)cc1 | 6.86
CCCCCOc1ccc(-c2ccc(-c3ccccc3Cl)n2Cc2ccc(NCCO)c(N)n2)cc1 | 6.86
CCCCCOc1ccc(-c2ccc(-c3ccccc3Cl)n2Cc2ccc(NCCCO)c(N)n2)cc1 | 6.86
CCCCOc1ccc(-c2ccc(-c3ccccc3Cl)n2Cc2cccc(N)n2)cc1 | 6.86
CCCCNC(=O)c1ccc(-c2ccc(-c3ccccc3)n2Cc2cccc(N)n2)cc1 | 6.86
Nc1nc(Cn2c(-c3ccc(Oc4cncnc4)cc3)ccc2-c2ccccc2Cl)ccc1OCCO | 6.86
Nc1nc(Cn2c(-c3ccc(Oc4cncnc4)cc3)ccc2-c2ccccc2Cl)ccc1NCCO | 6.86
Nc1cccc(Cn2c(-c3ccc(Oc4ccncc4)cc3)ccc2-c2ccccc2Cl)n1 | 6.86
Nc1cccc(Cn2c(-c3ccc(Oc4cccnc4)cc3)ccc2-c2ccccc2Cl)n1 | 6.86
Nc1cccc(Cn2c(-c3ccc(Oc4ccccn4)cc3)ccc2-c2ccccc2Cl)n1 | 6.86
Nc1cccc(Cn2c(-c3ccc(Oc4cncnc4)cc3)ccc2-c2ccccc2Cl)n1 | 6.86
Nc1cccc(Cn2c(-c3ccc(Oc4cnccn4)cc3)ccc2-c2ccccc2Cl)n1 | 6.86
CCCCCCOc1ccc(-c2ccc(-c3ccccc3Cl)n2Cc2cccc(N)n2)cc1 | 6.86
C=CCNC(=O)c1ccc(-c2ccc(-c3ccccc3)n2Cc2cccc(N)n2)cc1 | 6.86
CC(C)NC(=O)c1ccc(-c2ccc(-c3ccccc3)n2Cc2cccc(N)n2)cc1 | 6.86
Nc1cccc(Cn2c(-c3ccc(Oc4cccs4)cc3)ccc2-c2ccccc2Cl)n1 | 6.86
Nc1cccc(Cn2c(-c3ccccc3)ccc2-c2ccc(C(=O)NC3CCC3)cc2)n1 | 6.86
COc1ccc(-c2ccc(-c3ccccc3Cl)n2Cc2cccc(N)n2)cc1 | 6.86
Nc1cccc(Cn2c(-c3ccc(Nc4cncnc4)cc3)ccc2-c2ccccc2Cl)n1 | 6.86
